Laboratory results reported in patent EP0908457B1, “3-(1,2-benzisothiazol- and isoxazol-5-Y1)-2,4(1H,3H)-pyrimidinedione or thione and 3-(1,2-benzisothiazol- and isoxazol-5-y1)-4(3H)-pyrimidinone or thione herbicidal agents” (BASF AKTIENGESELLSCHAFT, priority 1997, dated 1999).
Like-named read-outs stand apart in the source and are kept apart here.

Columns and labels:
[1] = test system: Echinochloa oryzoides (Ard.) Fritsch.; assay: Preemergence weed control under flooded paddy conditions, ECHORC (Watergrass (Calif.)); assay type: in vivo; details: flooded paddy, rated three to four weeks after treatment; as to herbicidal effect rating, ECHORC: meaning of each grade not given here
Cyperus iria [2] = assay: Preemergence weed control under flooded paddy conditions, CYPIR (Rice Flatsedge); assay type: in vivo; details: flooded paddy, rated three to four weeks after treatment; as to herbicidal effect rating, CYPIR: meaning of each grade not given here
[3] = test system: Cyperus serotinus, Rottb.; assay: Preemergence weed control under flooded paddy conditions, CYPSE (Flatsedge); assay type: in vivo; details: rated three to four weeks after treatment; as to herbicidal effect rating, CYPSE: meaning of each grade not given here
[4] = test system: Monochoria vaginalis, Presl.; assay: Preemergence weed control under flooded paddy conditions, MOOVA (Monochoria); assay type: in vivo; details: flooded paddy, rated three to four weeks after treatment; as to herbicidal effect rating, MOOVA: meaning of each grade not given here
Sagittaria pygmaea, L. [5] = assay: Preemergence weed control under flooded paddy conditions, SAGPY (Arrowhead (Pygmaea)); assay type: in vivo; details: flooded paddy, rated three to four weeks after treatment; as to herbicidal effect rating, SAGPY: meaning of each grade not given here
[6] = test system: Oryza sativa, (L.) Tebonnet; details: in vivo
[7] = test system: Echinochloa oryzoides (Ard.) Fritsch.; assay: Postemergence weed control under flooded paddy conditions, ECHORC (Watergrass (Calif.)); assay type: in vivo; details: rated three to four weeks after treatment
Cyperus iria [8] = assay: Postemergence weed control under flooded paddy conditions, CYPIR (Rice Flatsedge); assay type: in vivo; details: rated three to four weeks after treatment
[9] = test system: Cyperus serotinus, Rottb.; assay: Postemergence weed control under flooded paddy conditions, CYPSE (Flatsedge); assay type: in vivo; details: rated three to four weeks after treatment
[10] = test system: Monochoria vaginalis, Presl.; assay: Postemergence weed control under flooded paddy conditions, MOOVA (Monochoria); assay type: in vivo; details: rated three to four weeks after treatment
Sagittaria pygmaea, L. [11] = assay: Postemergence weed control under flooded paddy conditions, SAGPY (Arrowhead (Pygmaea)); assay type: in vivo; details: rated three to four weeks after treatment
[12] = test system: Oryza sativa, (L.) Tebonnet; assay: Rice tolerance to post-transplant applications under flooded paddy conditions (Example 187), ORYSAT (Rice, Tebonnet); details: rated three to four weeks after treatment; as to herbicidal effect rating ORYSAT: meaning of each grade not given here
[13] = test system: Oryza sativa, (L.) Tebonnet; assay: Rice tolerance to post-transplant applications under flooded paddy conditions (Example 188), ORYSAT (Rice, Tebonnet); details: rated three to four weeks after treatment
[14] = Rate 0.0320 kg/ha, preemergence
[15] = Rate 0.0620 kg/ha, preemergence
[16] = Rate 0.1250 kg/ha, preemergence
[17] = Rate 0.2500 kg/ha, preemergence
[18] = Rate 0.0320 kg/ha, preemergence weeds
[19] = Rate 0.0620 kg/ha, preemergence weeds
[20] = Rate 0.1250 kg/ha, preemergence weeds
[21] = Rate 0.2500 kg/ha, preemergence weeds

1-Methyl-3-(2-methyl-3-oxo-1,2-benzisoxazolin-5-yl)-6-(trifluoromethyl)-2,4(1H,3H)-pyrimidinedione [Example 44]
herbicidal effect rating, ECHORC ([1]; 0.0313 kg/ha, preemergence): 0.0
herbicidal effect rating, ECHORC ([1]; 0.0625 kg/ha, preemergence): 0.0
herbicidal effect rating, ECHORC ([1]; 0.1250 kg/ha, preemergence): 0.0
herbicidal effect rating, ECHORC ([1]; 0.2500 kg/ha, preemergence): 0.0
herbicidal effect rating, CYPIR (Cyperus iria [2]; 0.0313 kg/ha, preemergence): 0.0
herbicidal effect rating, CYPIR (Cyperus iria [2]; 0.0625 kg/ha, preemergence): 0.0
herbicidal effect rating, CYPIR (Cyperus iria [2]; 0.1250 kg/ha, preemergence): 0.0
herbicidal effect rating, CYPIR (Cyperus iria [2]; 0.2500 kg/ha, preemergence): 0.0
herbicidal effect rating, CYPSE ([3]; 0.0313 kg/ha, preemergence): 0.0
herbicidal effect rating, CYPSE ([3]; 0.0625 kg/ha, preemergence): 0.0
herbicidal effect rating, CYPSE ([3]; 0.1250 kg/ha, preemergence): 0.0
herbicidal effect rating, CYPSE ([3]; 0.2500 kg/ha, preemergence): 0.0
herbicidal effect rating, MOOVA ([4]; 0.0313 kg/ha, preemergence): 0.0
herbicidal effect rating, MOOVA ([4]; 0.0625 kg/ha, preemergence): 0.0
herbicidal effect rating, MOOVA ([4]; 0.1250 kg/ha, preemergence): 0.0
herbicidal effect rating, MOOVA ([4]; 0.2500 kg/ha, preemergence): 0.0
herbicidal effect rating, SAGPY (Sagittaria pygmaea, L. [5]; 0.0313 kg/ha, preemergence): 0.0
herbicidal effect rating, SAGPY (Sagittaria pygmaea, L. [5]; 0.0625 kg/ha, preemergence): 0.0
herbicidal effect rating, SAGPY (Sagittaria pygmaea, L. [5]; 0.1250 kg/ha, preemergence): 0.0
herbicidal effect rating, SAGPY (Sagittaria pygmaea, L. [5]; 0.2500 kg/ha, preemergence): 0.0
herbicidal effect rating, ORYSAT (rice tolerance) [6]: 0.0

Cn1c(C(F)(F)F)cc(=O)n(-c2ccc3snc(CC=NO)c3c2)c1=O [Example 266, 1,2-Benzisothiazole-3-acetaldehyde, 5-[3,6-dihydro-3-methyl-2,6-dioxo-4-(trifluoromethyl)-1(2H)-pyrimidinyl]-, 3-oxime, (E)- and (Z)-]
ECHORC herbicidal effect rating [1, 14]: 0.0
ECHORC herbicidal effect rating [1, 15]: 0.0
ECHORC herbicidal effect rating [1, 16]: 0.0
ECHORC herbicidal effect rating [1, 17]: 0.0
CYPIR herbicidal effect rating (Cyperus iria [2]; [14]): 5.0
CYPIR herbicidal effect rating (Cyperus iria [2]; [15]): 5.0
CYPIR herbicidal effect rating (Cyperus iria [2]; [16]): 5.0
CYPIR herbicidal effect rating (Cyperus iria [2]; [17]): 9.0
CYPSE herbicidal effect rating [3, 14]: 0.0
CYPSE herbicidal effect rating [3, 15]: 0.0
CYPSE herbicidal effect rating [3, 16]: 0.0
CYPSE herbicidal effect rating [3, 17]: 3.0
MOOVA herbicidal effect rating [4, 14]: 9.0
MOOVA herbicidal effect rating [4, 15]: 9.0
MOOVA herbicidal effect rating [4, 16]: 9.0
MOOVA herbicidal effect rating [4, 17]: 9.0
SAGPY herbicidal effect rating (Sagittaria pygmaea, L. [5]; [14]): 0.0
SAGPY herbicidal effect rating (Sagittaria pygmaea, L. [5]; [15]): 0.0
SAGPY herbicidal effect rating (Sagittaria pygmaea, L. [5]; [16]): 0.0
SAGPY herbicidal effect rating (Sagittaria pygmaea, L. [5]; [17]): 0.0
ORYSAT herbicidal effect rating [6]: 0.0

CON(C)C(=O)COc1ccccc1-c1nsc2ccc(-n3c(=O)cc(C(F)(F)F)n(C)c3=O)cc12 [Example 354, Acetamide, 2-{o-{5-[3,6-dihydro-3-methyl-2,6-dioxo-4-(trifluoromethyl)-1(2H)-pyrimidinyl]-1,2-benzisothiazol-3-yl}phenoxy}-N-methoxy-N-methyl-]
herbicidal effect rating, ECHORC [1, 14]: 9.0
herbicidal effect rating, ECHORC [1, 15]: 9.0
herbicidal effect rating, ECHORC [1, 16]: 9.0
herbicidal effect rating, ECHORC [1, 17]: 9.0
herbicidal effect rating, CYPIR (Cyperus iria [2]; [14]): 8.3
herbicidal effect rating, CYPIR (Cyperus iria [2]; [15]): 9.0
herbicidal effect rating, CYPIR (Cyperus iria [2]; [16]): 9.0
herbicidal effect rating, CYPIR (Cyperus iria [2]; [17]): 9.0
herbicidal effect rating, CYPSE [3, 14]: 8.0
herbicidal effect rating, CYPSE [3, 15]: 9.0
herbicidal effect rating, CYPSE [3, 16]: 9.0
herbicidal effect rating, CYPSE [3, 17]: 9.0
herbicidal effect rating, MOOVA [4, 14]: 9.0
herbicidal effect rating, MOOVA [4, 15]: 9.0
herbicidal effect rating, MOOVA [4, 16]: 9.0
herbicidal effect rating, MOOVA [4, 17]: 9.0
herbicidal effect rating, SAGPY (Sagittaria pygmaea, L. [5]; [14]): 6.3
herbicidal effect rating, SAGPY (Sagittaria pygmaea, L. [5]; [15]): 9.0
herbicidal effect rating, SAGPY (Sagittaria pygmaea, L. [5]; [16]): 9.0
herbicidal effect rating, SAGPY (Sagittaria pygmaea, L. [5]; [17]): 9.0
herbicidal effect rating, ECHORC ([7]; Rate 0.0320 kg/ha): 4.0
herbicidal effect rating, ECHORC ([7]; Rate 0.0620 kg/ha): 7.0
herbicidal effect rating, ECHORC ([7]; Rate 0.1250 kg/ha): 9.0
herbicidal effect rating, CYPIR (Cyperus iria [8]; Rate 0.0620 kg/ha): 9.0
herbicidal effect rating, CYPIR (Cyperus iria [8]; Rate 0.1250 kg/ha): 9.0
herbicidal effect rating, CYPSE ([9]; Rate 0.0320 kg/ha): 1.0
herbicidal effect rating, CYPSE ([9]; Rate 0.0620 kg/ha): 2.0
herbicidal effect rating, CYPSE ([9]; Rate 0.1250 kg/ha): 9.0
herbicidal effect rating, MOOVA ([10]; Rate 0.0320 kg/ha): 6.0
herbicidal effect rating, MOOVA ([10]; Rate 0.0620 kg/ha): 9.0
herbicidal effect rating, MOOVA ([10]; Rate 0.1250 kg/ha): 9.0
herbicidal effect rating, SAGPY (Sagittaria pygmaea, L. [11]; Rate 0.0320 kg/ha): 0.0
herbicidal effect rating, SAGPY (Sagittaria pygmaea, L. [11]; Rate 0.0620 kg/ha): 2.0
herbicidal effect rating, SAGPY (Sagittaria pygmaea, L. [11]; Rate 0.1250 kg/ha): 9.0
herbicidal effect rating ORYSAT ([12]; Rate 0.0320 kg/ha): 7.3
herbicidal effect rating ORYSAT ([12]; Rate 0.0620 kg/ha): 8.0
herbicidal effect rating ORYSAT ([12]; Rate 0.1250 kg/ha): 9.0
herbicidal effect rating ORYSAT ([12]; Rate 0.2500 kg/ha): 9.0
herbicidal effect rating, ORYSAT (rice tolerance) ([13]; Rate 0.0620 kg/ha): 6.0
herbicidal effect rating, ORYSAT (rice tolerance) ([13]; Rate 0.1250 kg/ha): 6.0

COc1ccc(OC)c(-c2nsc3ccc(-n4c(=O)cc(C(F)(F)F)n(C)c4=O)cc23)c1 [Example 333, 2,4(1H,3H)-Pyrimidinedione, 3-[3-(2,5-dimethoxyphenyl)-1,2-benzisothiazol-5-yl]-1-methyl-6-(trifluoromethyl)-]
herbicidal effect rating, ECHORC [1, 18]: 9.0
herbicidal effect rating, ECHORC [1, 19]: 9.0
herbicidal effect rating, ECHORC [1, 20]: 9.0
herbicidal effect rating, ECHORC [1, 21]: 9.0
herbicidal effect rating, CYPIR (Cyperus iria [2]; [18]): 9.0
herbicidal effect rating, CYPIR (Cyperus iria [2]; [19]): 9.0
herbicidal effect rating, CYPIR (Cyperus iria [2]; [20]): 9.0
herbicidal effect rating, CYPIR (Cyperus iria [2]; [21]): 9.0
herbicidal effect rating, CYPSE [3, 18]: 7.0
herbicidal effect rating, CYPSE [3, 19]: 7.0
herbicidal effect rating, CYPSE [3, 20]: 7.5
herbicidal effect rating, CYPSE [3, 21]: 7.5
herbicidal effect rating, MOOVA [4, 18]: 9.0
herbicidal effect rating, MOOVA [4, 19]: 9.0
herbicidal effect rating, MOOVA [4, 20]: 9.0
herbicidal effect rating, MOOVA [4, 21]: 9.0
herbicidal effect rating, SAGPY (Sagittaria pygmaea, L. [5]; [18]): 5.5
herbicidal effect rating, SAGPY (Sagittaria pygmaea, L. [5]; [19]): 8.0
herbicidal effect rating, SAGPY (Sagittaria pygmaea, L. [5]; [20]): 8.5
herbicidal effect rating, SAGPY (Sagittaria pygmaea, L. [5]; [21]): 9.0
herbicidal effect rating, ECHORC ([7]; Rate 0.0320 kg/ha): 9.0
herbicidal effect rating, ECHORC ([7]; Rate 0.0620 kg/ha): 9.0
herbicidal effect rating, ECHORC ([7]; Rate 0.1250 kg/ha): 9.0
herbicidal effect rating, ECHORC ([7]; Rate 0.2500 kg/ha): 9.0
herbicidal effect rating, CYPIR (Cyperus iria [8]; Rate 0.0320 kg/ha): 9.0
herbicidal effect rating, CYPIR (Cyperus iria [8]; Rate 0.0620 kg/ha): 9.0
herbicidal effect rating, CYPIR (Cyperus iria [8]; Rate 0.1250 kg/ha): 9.0
herbicidal effect rating, CYPIR (Cyperus iria [8]; Rate 0.2500 kg/ha): 9.0
herbicidal effect rating, CYPSE ([9]; Rate 0.0320 kg/ha): 0.0
herbicidal effect rating, CYPSE ([9]; Rate 0.0620 kg/ha): 2.0
herbicidal effect rating, CYPSE ([9]; Rate 0.1250 kg/ha): 4.0
herbicidal effect rating, CYPSE ([9]; Rate 0.2500 kg/ha): 8.0
herbicidal effect rating, MOOVA ([10]; Rate 0.0320 kg/ha): 9.0
herbicidal effect rating, MOOVA ([10]; Rate 0.0620 kg/ha): 9.0
herbicidal effect rating, MOOVA ([10]; Rate 0.1250 kg/ha): 9.0
herbicidal effect rating, MOOVA ([10]; Rate 0.2500 kg/ha): 9.0
herbicidal effect rating, SAGPY (Sagittaria pygmaea, L. [11]; Rate 0.0320 kg/ha): 0.0
herbicidal effect rating, SAGPY (Sagittaria pygmaea, L. [11]; Rate 0.0620 kg/ha): 2.0
herbicidal effect rating, SAGPY (Sagittaria pygmaea, L. [11]; Rate 0.1250 kg/ha): 4.0
herbicidal effect rating, SAGPY (Sagittaria pygmaea, L. [11]; Rate 0.2500 kg/ha): 4.0
herbicidal effect rating ORYSAT ([12]; Rate 0.0320 kg/ha): 4.0
herbicidal effect rating ORYSAT ([12]; Rate 0.0620 kg/ha): 6.0
herbicidal effect rating ORYSAT ([12]; Rate 0.1250 kg/ha): 7.0
herbicidal effect rating ORYSAT ([12]; Rate 0.2500 kg/ha): 7.0
herbicidal effect rating, ORYSAT (rice tolerance) ([13]; Rate 0.0320 kg/ha): 4.0
herbicidal effect rating, ORYSAT (rice tolerance) ([13]; Rate 0.0620 kg/ha): 5.0
herbicidal effect rating, ORYSAT (rice tolerance) ([13]; Rate 0.1250 kg/ha): 6.0
herbicidal effect rating, ORYSAT (rice tolerance) ([13]; Rate 0.2500 kg/ha): 6.0
